According to US5071841A, “Sulfur-containing heterocyclic compounds useful for the treatment of osteoporosis, and their production” (priority 1988, dated 1991):
Like-named read-outs stand apart in the source and are kept apart here.

Assays:
[1] = test system: right and left humeri (radii and ulnae) of rat fetus; assay: Bone resorption inhibition: 45Ca release from fetal rat bone in culture (method of Raisz); type: cell-based, Sprague-Dawley rat; conditions: for activity at 10 µg/mL: Rattus norvegicus, 48 h, read-out: 45Ca released (% of control value)
Method: Thus, a Sprague-Dawley rat at day 19 of pregnancy was subcutaneously dosed with 50 μCi of ^45 Ca (a radioisotope of calcium, in CaCl2). On the next day, the animal was laparotomized and the fetuses were removed aseptically. The right and left humeri (radii and ulnae) of each rat fetus were dissected from the body under the dissection microscope. The connective tissue and cartilages were removed as far as possible to prepare bone culture specimens. Each piece of bone was incubated in 0.6 ml of BGJb medium Fitton-Jackson modification (the tradename owned by GIBCO Laboratories, U.S.A.) containing 2 mg/ml of bovine serum albumin at 37° C. for 24 hours. […] The radioactivities of ^45 Ca in the culture medium and bone were determined and the ratio (%) of ^45 Ca released from the bone to the medium was calculated according to the following formula. […] A=ratio (%) of ^45 Ca released from the bone to the medium B=^45 Ca count in the medium
C=^45 Ca count in the bone
The bones from the fetuses of the same litter were similarly incubated without addition of the test compound for two days and served as controls.
The values for 5 bones per group were expressed in mean. The ratio (%) of this value for the treatment group to the control value was determined.

[2] = test system: oophorectomized Sprague-Dawley rats, right femur; assay: Treatment of osteoporosis in oophorectomized rats (femur bone density, dry weight, ashes); type: in vivo; conditions: daily dose 100 mg/kg orally; for Ashes / Dry weight: 18 doses, distal 1/3 of right femur
Method: Study on Treatment of Osteoporosis
Oophorectomy was performed on Sprague-Dawley rats at 10 weeks of age and starting from the following day, the rats were orally dosed with the test compound 6 days a week for 3 weeks, or a total of 18 days. On the day following the last dosing, the right femur was removed from each rat and subjected to soft X-ray photography with a soft X-ray apparatus (Softex CSM, Softex). Using a microdensitometer (PDM-5, Konica Medical), the transverse section of the femur on the soft X-ray film was scanned at a point one-fifth from the distal end (metaphysis) and from the density wave pattern, bone density was calculated according to the microdensitometric method described by Inoue et al. [Journal of Japanese Orthopedic Association (J Jpn. Orthop. Ass.) 57, 1923 (1983)].
After soft X-ray photographing, the 1/3 distal part of the femur was sectioned off at right angles with the major axis. After the bone marrows were washed off with a rinse pump, the femur section was put into a porcelain crucible, placed in a oven and dried at 110° C. for 24 hours. The dry weight was then determined.
The porcelain crucible containing the bone was transferred to a muffle furnace (FP-41, Yamato Chemicl) and heated at 500° C. for 3 hours and at 800° C. for 2 hours for calcification of the bone and the ashes were weighed.
The mean ± standard errors of the measured values for the right femurs of 7 rats per group were determined.

mice = assay: Oral toxicity in mice; type: in vivo; conditions: 300 mg/kg
From the text: The compound (I) and salt according to the present invention has excellent bone resorption inhibitory activity. Thus, they have the action to inhibit the dissolution and diminution of bone in the body. Furthermore, compound (I) and salts thereof have bone formation promoting activity.

[3] = final concentration 10 μg/ml, two additional days at 37° C., mean of 5 bones per group, lower = more inhibition
[4] = Table 4, oophorectomy control 76.3, sham 85.7
[5] = Table 4, oophorectomy control 114.2, sham 131.4

SMILES	activity at 10 µg/mL [1] [%]	activity at 10 µg/mL [1, 3] [%]	further results
CCOP(=O)(Cc1ccc(NC(=O)C2SCC(=O)c3cc(C4CCCC4)ccc32)cc1)OCC (stereo not drawn) [Example 132]	57		
COP(=O)(OC)c1ccc(NC(=O)C2SCC(=O)c3cc4c(cc32)CCCC4)cc1 (stereo not drawn) [Example 31]	64		
COc1ccc(CCN(C)C(=O)C2SCC(=O)c3cc(C4CCCCC4)ccc32)cc1OC (stereo not drawn) [Example 55]		78	
CC(C)OP(=O)(Cc1ccc(NC(=O)C2SCC(=O)c3cc4c(cc32)CCCC4)cc1)OC(C)C (stereo not drawn) [Example 36]	73		
O=C1CSC(C(=O)Nc2nccs2)c2ccc(C3CCCCC3)cc21 (stereo not drawn) [Example 12]		84	
CCOP(=O)(OCC)c1ccc(NC(=O)C2SCC(=O)c3cc4c(cc32)CCCC4)cc1 (stereo not drawn) [Example 33]	53		
Cc1cc2c(cc1C)C(C(=O)Nc1ccc(C)c(Cl)c1)SCC2=O (stereo not drawn) [Example 157]		71	
CCOP(=O)(Cc1ccc(NC(=O)C2SCC(=O)c3c(C)ccc(C)c32)cc1)OCC (stereo not drawn) [Example 150]	71		
CCOP(=O)(Cc1ccc(NC(=O)C2SCC(=O)c3cc(C(C)(C)CC)ccc32)cc1)OCC (stereo not drawn) [Example 146]	62		Ashes ([2]; Table 3, oophorectomy control 74.3, sham 88.3): 84.1 mg; Dry weight ([2]; Table 3, oophorectomy control 112.3, sham 130.4): 128.2 mg
O=C1CSC(C(=O)Nc2cccnc2)c2ccc(C3CCCCC3)cc21 (stereo not drawn) [Example 10, 6-cyclohexyl-N-(3-pyridyl)-3,4-dihydro-1H-2-benzothiopyran-4-one-1-carboxamide]		62	
Cc1cc2c(cc1C)C(C(=O)Nc1ccc(Cl)c(Cl)c1)SCC2=O (stereo not drawn) [Example 155]		80	
CCOP(=O)(Cc1ccc(NC(=O)C2SCC(=O)c3cc(C4CCCCC4)ccc32)cc1)OCC (stereo not drawn) [Example 22]	57		Ashes ([2]; Table 2, oophorectomy control 74.3, sham 80.0): 82.4 mg; Dry weight ([2]; Table 2, oophorectomy control 107.7, sham 116.2): 120.0 mg; Bone density ([2]; Table 2, 6 days a week for 3 weeks, femur metaphysis, oophorectomy control 1.062, sham 1.304): 1.336; death (mice): no death was encountered
CCOP(=O)(Cc1cccc(NC(=O)C2SCC(=O)c3cc4c(cc32)CCCC4)c1)OCC (stereo not drawn) [Example 191]	58		
CCOP(=O)(Cc1ccc(NC(=O)[C@@H]2S[C@@H](C)C(=O)c3cc(C4CCCCC4)ccc32)cc1)OCC (relative stereo) [Example 23]	65		
CCOP(=O)(Cc1ccc(NC(=O)C2SCC(=O)c3cc(C)c(C)cc32)cc1)OCC (stereo not drawn) [Example 163]	50		Ashes [2, 4]: 82.3 mg; Dry weight [2, 5]: 127.6 mg
COc1ccc(NC(=O)C2SCC(=O)c3cc4c(cc32)CCCC4)cc1OC (stereo not drawn) [Example 28]		79	
CCOP(=O)(Cc1ccc(NC(=O)C2SCC(=O)c3cc(C4CCCCCC4)ccc32)cc1)OCC (stereo not drawn) [Example 138]	63		
CCOP(=O)(Cc1ccc(NC(=O)C2SCC(=O)c3cc(C)ccc32)cc1)OCC (stereo not drawn) [Example 140]	61		
O=C1CSC(C(=O)N2CCN(c3ccc(F)cc3)CC2)c2ccc(C3CCCCC3)cc21 (stereo not drawn) [Example 18]			death (mice): no death was encountered

SMILES	activity at 10 µg/mL [1] [%]	activity at 10 µg/mL [1, 3] [%]	further results
CCOP(=O)(Cc1ccc(NC(=O)C2SCC(=O)c3cc4c(cc32)CCCC4)cc1)OCC (stereo not drawn) [Example 35]	58		
CCOP(=O)(OCC)c1ccc(NC(=O)C2SCC(=O)c3cc(C(C)(C)C)ccc32)cc1 (stereo not drawn) [Example 143]	44		
O=C(Nc1ccc2c(c1)OCO2)C1SCC(O)c2ccc(C3CCCCC3)cc21 (stereo not drawn) [Example 59, 7-cyclohexyl-N-(3,4-methylenedioxyphenyl)-c-4-hydroxy-3,4-dihydro-1H-2-benzothiopyran-r-1-carboxamide]			45Ca released (% of control value) ([1]; final concentration 10 μg/ml, two additional days at 37° C., mean of 5 bones per group, lower = more inhibition, 2880 min): 64 % of control value
O=C1CSC(C(=O)O)c2ccc(Cl)cc21 (stereo not drawn) [Example 1, 6-chloro-3,4-dihydro-1H-2-benzothiopyran-4-one-1-carboxylic acid]		84	
CCOP(=O)(OCC)c1ccc(NC(=O)C2SCC(=O)c3cc4c(cc32)CCCCC4)cc1 (stereo not drawn) [Example 198]	62		
O=C1CSC(C(=O)N2CCN(c3ccc(F)cc3)CC2)c2cc3c(cc21)CCCC3 (stereo not drawn) [Example 30]		75	
CCOP(=O)(CCc1ccc(NC(=O)C2SCC(=O)c3cc(C(C)(C)C)ccc32)cc1)OCC (stereo not drawn) [Example 144]	52		
O=C1CSC(C(=O)Nc2ccc(Cl)cc2)c2ccc(C3CCCCC3)cc21 (stereo not drawn) [Example 21]		73	
CCOP(=O)(OCC)c1ccc(NC(=O)C2SCC(=O)c3cc(Cl)ccc32)cc1 (stereo not drawn) [Example 46]	76		
CCOP(=O)(OCC)c1ccc(NC(=O)C2SCC(=O)c3cc(C)c(C)cc32)cc1 (stereo not drawn) [Example 161]	50		Ashes [2, 4]: 83.7 mg; Dry weight [2, 5]: 127.5 mg
CCCOP(=O)(OCCC)c1ccc(NC(=O)C2SCC(=O)c3cc4c(cc32)OCCO4)cc1 (stereo not drawn) [Example 50]	73		
O=C1CSC(C(=O)Nc2ccc(Cl)cc2)c2cc3c(cc21)CCC3 (stereo not drawn) [Example 183]		47	
COc1ccc(-c2csc(NC(=O)C3SCC(=O)c4cc(C5CCCCC5)ccc43)n2)cc1OC (stereo not drawn) [Example 14]		81	
COP(=O)(OC)c1ccc(NC(=O)C2SCC(=O)c3cc(C)c(C)cc32)cc1 (stereo not drawn) [Example 160]	54		
CCOP(=O)(OCC)c1ccc(NC(=O)C2SCC(=O)c3cc(C(C)C)ccc32)cc1 (stereo not drawn) [Example 141]	57		
Cc1cc(C)c2c(c1)C(=O)CSC2C(=O)Nc1ccc(Cl)cc1 (stereo not drawn) [Example 153]		63	
O=C1CSC(C(=O)Nc2ccc3c(c2)OCO3)c2ccc(C3CCCCC3)cc21 (stereo not drawn) [Example 19]		70	
CCOP(=O)(OCC)c1ccc(NC(=O)C2Cc3ccc(C4CCCCC4)cc3C(=O)CS2)cc1 (stereo not drawn) [Example 56, 7-cyclohexyl-N-(4-diethoxyphosphorylphenyl)-1,2,4,5-tetrahydro-3-benzothiepin-5-one-2-carboxamide]	76		
CCOP(=O)(NC(=O)C1SCC(=O)c2cc(C3CCCCC3)ccc21)OCC (stereo not drawn) [Example 201, 6-cyclohexyl-N-diethoxyphosphoryl-3,4-dihyiro-1H-2-benzothiopyran-4-one-1-carboxamide]	65		
